Measured values published in PubChem BioAssay (NCI).
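Protocol summary: plate cells (96-well), add compound at 5 concentrations, incubate 48 h, interpolate endpoints linearly. Abbreviation: GI50, concentration required for 50% inhibition of growth. At the TGI there is no net growth.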

Assays:
Test in all cases: NCI tumour cell line growth inhibition, 48 h
NCI/ADR-RES ovarian = test system: NCI/ADR-RES ovarian
K-562 leukemia = test system: K-562 leukemia
UACC-257 melanoma = test system: UACC-257 melanoma
UO-31 renal = test system: UO-31 renal
T-47D breast = test system: T-47D breast
BT-549 breast = test system: BT-549 breast
ACHN renal = test system: ACHN renal
HS 578T breast = test system: HS 578T breast
MDA-MB-231 breast = test system: MDA-MB-231 breast
786-0 renal = test system: 786-0 renal
MDA-N = test system: MDA-N

SMILES	TGI (NCI/ADR-RES ovarian)	TGI (K-562 leukemia)	TGI (UACC-257 melanoma)	TGI (UO-31 renal)	GI50 (T-47D breast)	TGI (T-47D breast)	GI50 (BT-549 breast)	TGI (BT-549 breast)	GI50 (NCI/ADR-RES ovarian)	GI50 (K-562 leukemia)	GI50 (ACHN renal)	TGI (ACHN renal)	GI50 (HS 578T breast)	TGI (HS 578T breast)	GI50 (UO-31 renal)	GI50 (MDA-MB-231 breast)	TGI (MDA-MB-231 breast)	TGI (786-0 renal)	TGI (MDA-N)
Nc1ccc2c(c1)C1=NNC(=O)CC1C2 (stereo not drawn)	> 100 µM	> 100 µM	> 100 µM	> 100 µM															
COc1cc(-c2n/c(=C\c3c(O)[nH]c4ccc(Cl)cc34)cc3c2=Nc2ccccc2-3)cc(OC)c1OC	7.55 µM	10.1 µM		2.72 µM	1.28 µM	3.21 µM	2.43 µM	7.45 µM	2.01 µM	0.728 µM	0.449 µM	1.65 µM	2.29 µM	8.31 µM	1.29 µM	1.47 µM	3.12 µM		
CN1CCN(c2ccc(-c3ccc4ncc(C#N)c(Nc5ccc(F)c(Cl)c5)c4c3)cc2)CC1	27.9 µM			6.13 µM	1.93 µM	7.15 µM	3.77 µM	17.9 µM	4.57 µM		0.491 µM	2.72 µM	2.55 µM	9.88 µM	0.895 µM	6 µM	28.5 µM		
[N-]=[N+]=Nc1ccc(NCCCCCC(=O)ON2C(=O)CCC2=O)c([N+](=O)[O-])c1	> 100 µM	> 100 µM	> 100 µM	> 100 µM		> 100 µM		> 100 µM				> 100 µM		97.2 µM			> 100 µM	> 100 µM	
C=C(C)[C@@H]1CC[C@]2(C)CC[C@]3(C)[C@H](CC[C@@H]4[C@@]5(C)CC[C@H](OC(=O)c6ccccc6)C(C)(C)[C@@H]5CC[C@]43C)[C@@H]12	> 100 µM	> 100 µM	> 100 µM	> 100 µM		> 100 µM		> 100 µM				> 100 µM		> 100 µM			> 100 µM	> 100 µM	> 100 µM
O=C(N/C(=C\c1ccccc1[N+](=O)[O-])c1nc2ccccc2[nH]1)c1ccccc1		> 100 µM		> 100 µM															
COc1ccc(NS(=O)c2ccc(-c3ccccc3)cc2)cc1 (stereo not drawn)	> 100 µM	> 100 µM	> 100 µM	> 100 µM								> 100 µM		31.2 µM			> 100 µM		> 100 µM
Cc1nc(Cl)c(Cl)c(Cl)n1	15.3 µM	0.0358 µM	1.62 µM	0.208 µM		7.71 µM		0.482 µM				1.1 µM		4.49 µM			0.656 µM	1.47 µM	3.15 µM
O=c1[nH][nH]c(=O)[nH]1		> 100 µM	> 100 µM	> 100 µM														> 100 µM	
CC1SC(c2ccccc2)N(Nc2c3ccccc3nc3ccccc23)C1=O (stereo not drawn)		> 100 µM	> 100 µM	82.3 µM								> 100 µM							
CNC(C)Cc1ccccc1O (stereo not drawn)		> 100 µM	> 100 µM	> 100 µM								> 100 µM						> 100 µM	
CO[C@H]1[C@@H](O)[C@@H](C)O[C@@H](O[C@H]2CC[C@@]3(C)[C@H](CC[C@@H]4[C@@H]3CC[C@]3(C)[C@@H](C5=CC(=O)OC5)CC[C@]43O)C2)[C@@H]1O	0.0276 µM	0.371 µM	0.0446 µM	0.0108 µM		0.222 µM		0.0236 µM		0.00633 µM		0.0102 µM		0.031 µM			0.269 µM	0.01 µM	0.0504 µM
CCn1nc(C)c2c1C(=O)NC(C)C(=O)N2 (stereo not drawn)			> 100 µM	> 100 µM				> 100 µM				> 100 µM		> 100 µM					> 100 µM
CN(C)CCNc1ccc2ncnc3c2c1C(=O)c1ccccc1-3	5.28 µM	6.75 µM	11.5 µM	12.9 µM		24.7 µM		21 µM				8.77 µM		15.1 µM			4.1 µM	5.47 µM	4.11 µM
